Two compounds from patent US4895589A, “Heterocyclic compounds” (Imperial Chemical Industries PLC, priority 1985, dated 1990) can be followed below.

Where two headings read alike, the source gives them in different places.

For one assay, the system named is Apples. Put plainly: Intermediate Retardant Test, apples. It is filed as in vivo, Apples (Red Delicious). As to conditions: 672 h, ~28 days, read-out: Percentage Reduction in Height of Apples (Compared to formulation blank). An outline of the steps:
(§1)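 Percentage height reduction relative to the formulation blank, assessed about 28 days post-treatment as height to top-most ligule (rice, spring barley) or to apex (apples). Compounds sprayed overall at 1000 and 4000 ppm (1 and 4 kg ha^-1 in 1000 l/ha), covering root and foliar uptake; rice grown immersed in paddy pots.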

The next assay has as its system Tomato. The settings on record: TO, 4000 ppm, 2-3 weeks.
The test system of a further assay is Apple. Put plainly: Whole Plant Screen (2), apple. The format is in vivo, Apple (Red Delicious). As to conditions: AP, 4000 ppm, side-by-side, Table XIII. The procedure: After 2-6 weeks in the glasshouse, depending on the time of year, the plants were visually assessed for morphological characteristics. Formulation blanks were used as controls to assess the plants.
Compound numbers 1, 5 and 7 (of the present invention) were tested against compounds A, B, C and D (compound Nos. 12, 2, 24 and 50 of Table 1 EP No. 0052424) on whole plant screen (2). The compounds were tested of plant growth regulator activity against five species and for various growth effects relevant to plant growth regulation. The structures are set out in FIG. 1.
The plant species used in this screen are presented in Table XII with the leaf stage at which they were sprayed Each chemical was applied at 4000 ppm (4 kg/ha in a 1000 l/ha field volume) using a tracksprayer and a SS8004E (Teejet) nozzle. […]

Assay [1] has as its system plant species of Whole Plant Screen (1) or (2). Put plainly: Across screen comparison: total retardation relative to paclobutrazol (Whole Plant Screens (1) and (2)). The format is in vivo. As to conditions: compounds of Table I, Table X. In a few lines: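 Compounds, each tested in Whole Plant Screen (1) or (2), are compared by summing retardation scores over all species tested. Each total is expressed as a percentage of the total retardation from paclobutrazol, the standard run in every test.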

For assay [2], the system named is Barley. The settings on record: BR, 4000 ppm, 2-3 weeks.
Another assay has as its system Dacrylis glomerata. The settings on record: DA, 4000 ppm, 2-3 weeks.
The subject of a further assay is Agrostis tenius. The settings on record: AT, 4000 ppm, 2-3 weeks.
A further assay has as its system Soya. As to conditions: SY, 4000 ppm, 2-3 weeks.
In a further assay the test system is Spring Barley. Nature of the assay: Intermediate Retardant Test, spring barley. It is filed as in vivo, Spring Barley (Atem/kym). The settings on record: Hordeum vulgare, 672 h, ~28 days, read-out: Percentage Reduction in Height of Spring Barley (Compared to formulation blank). An outline of the steps: as §1
Assay [3] has as its system Wheat. Put plainly: Whole Plant Screen (2), wheat. It is filed as in vivo, Wheat (Timmo). The settings on record: WW, 4000 ppm, side-by-side, Table XIII. In a few lines: (§2)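 Foliar spray at 4000 ppm (4 kg/ha in 1000 l/ha) by tracksprayer at the listed leaf stage. Plants grown in glasshouse at 25° C. day/22° C. night, 16° C./13° C. for wheat, 16 h photoperiod. Morphology visually assessed after 2-6 weeks against formulation blanks.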

Assay [4] has as its system Wheat. As to conditions: WW, 4000 ppm, 2-3 weeks.
The test system of the next assay is Cynosurus cristatus. As to conditions: CC, 4000 ppm, 2-3 weeks.
For another assay, the system named is Rice. Nature of the assay: Whole Plant Screen (2), rice. The format is in vivo, Rice (Ishikari). As to conditions: RC, 4000 ppm, side-by-side, Table XIII. An outline of the steps:
as §2

In assay [5] the test system is Barley. Nature of the assay: Whole Plant Screen (2), barley. The settings on record: BR, 4000 ppm, side-by-side, Table XIII. The format is in vivo, Barley (Atem).

Description for Soya: (§3) The compounds were tested for plant growth regulator activity against up to tweleve plant species for various growth effects relevant to plant growth regulation.
(§4) After spray, the plants were grown in a glasshouse with 25° C. day/22° C. night temperatures and supplementary lighting was supplied when necessary (from mercury vapour lamps), to provide a 16 hour photoperiod. The exception to this were the temperate cereals, wheat and barley, which were grown in 16° C. day 13° C. night temperatures
(§5) After 2-3 weeks in the glasshouse, depending on the time of year, the plants were visually assessed for morphological characteristics. Formulations blanks were used as controls to assess the Plants.
Description for Tomato: as §3, §4, §5

Take `CC(C)CC#CC(O)(Cn1cncn1)C(C)(C)C` (stereo not drawn) [Compound 7, 2,2-dimethyl-3-hydroxy-3-(4-methyl-pent-1-yne-1-yl)-4-(1,2,4-triazol-1-yl)-butane]: the percent reduction in plant height vs formulation blank at 1000 ppm came to 15% in the assay on Apples (Table IX) and 30% with Apples (side-by-side, Table XVII). Besides, the percent reduction in plant height vs formulation blank at 4000 ppm in the assay on Apples (Table IX) was found to be 31%; in the assay on Apples (side-by-side, Table XVII), 60%. Moreover, the “Retardation score (1-3) with greening (G), apical damage (A), tillering/side shooting (T)” value (shortened to “Retardation score … tillering/side shooting (T)”) in the assay with Tomato came out at 2GT; with Barley [2], 2GT; with Dacrylis glomerata it was 1G; in the assay on Agrostis tenius it was 2G; with Soya it was 3GAT; in the assay on Wheat [4], 3GT. Moreover, in the assay with Cynosurus cristatus, the “Retardation score … tillering/side shooting (T)” value was found to be 2G. Moreover, the “G = Greening effect” value with Apple, in the assay with Wheat [3], with Rice and with Barley [5] was 1 (10-30%) in each case. Moreover, in [1], the “Total Retardation expressed as a percentage of the total retardation caused by paclobutrazol” value is 58.6 % of paclobutrazol. The height reduction vs blank at 1000 ppm with Spring Barley (Table VIII) is 33%; in the assay with Spring Barley (side-by-side, Table XV) it was 20%. For the same compound, the height reduction vs blank at 4000 ppm in the assay with Spring Barley (Table VIII) worked out at 75.4%; with Spring Barley (side-by-side, Table XV), 51%. Moreover, the “T = Tillering or side shooting” value in the assay with Wheat [3] was 1 (10-30%); with Rice it was 3 (61-100%). For the same compound, the “I = Interligular or internodal length reduction” value with Rice and in the assay on Barley [5] was 3 (61-100%) each time. The “R = Retardation” value in the assay with Rice is 2 (31-60%).

Take `CCCCC#CC(O)(Cn1cncn1)C(C)(C)C` (stereo not drawn) [Compound 1, 2,2-dimethyl-3-hydroxy-3-(hex-1-yne-1-yl)-4-(1,2,4-triazol-1-yl)-butane]: the percent reduction in plant height vs formulation blank at 1000 ppm in the assay with Apples (side-by-side, Table XVII) amounted to 0%. In addition, the percent reduction in plant height vs formulation blank at 4000 ppm was 51.6% in the assay with Apples (Table IX) and 41% in the assay with Apples (side-by-side, Table XVII). Also, the “Retardation score … tillering/side shooting (T)” value in the assay on Tomato is 2G; in the assay on Barley [2], 3T; in the assay with Dacrylis glomerata it was 2G; with Agrostis tenius, 3G; with Soya, 1G; in the assay on Wheat [4], 3T. In the assay on Cynosurus cristatus, the “Retardation score … tillering/side shooting (T)” value was 2G. Further, the “G = Greening effect” value was 1 (10-30%) in the assay with Apple, 2 (31-60%) in the assay on Rice and 1 (10-30%) with Barley [5]. Also, the “Total Retardation expressed as a percentage of the total retardation caused by paclobutrazol” value in assay [1] is 84.0 % of paclobutrazol. Further, the height reduction vs blank at 1000 ppm in the assay on Spring Barley (Table VIII) came to 32.3%; in the assay on Spring Barley (side-by-side, Table XV) it was 28%. For the same compound, the height reduction vs blank at 4000 ppm in the assay with Spring Barley (Table VIII) was 60.7%; in the assay with Spring Barley (side-by-side, Table XV), 62%. Besides, the “T = Tillering or side shooting” value in the assay on Wheat [3] is given as 1 (10-30%); with Rice, 3 (61-100%); in the assay on Barley [5], 1 (10-30%). In the assay with Rice, the “I = Interligular or internodal length reduction” value is 3 (61-100%). The “R = Retardation” value in the assay on Rice is recorded as 2 (31-60%).
